Experimental data taken from patent US11111500B2, “Mutated protoporphyrinogen IX oxidase (PPX) genes” (CIBUS US LLC, priority 2010, dated 2021).

Key:
potato plastidal PPX = experiment: Tolerance to sulfentrazone of HemG mutant E. coli complemented with potato plastidal PPX (plate selection, colony count); assay type: cell-based, Solanum tuberosum; conditions: wild-type potato plastidal PPX clone in hemG mutant E. coli
Source text: StcPPX1, less its chloroplast transit peptide was cloned from cDNA into Cibus' proprietary functional screening vector. This vector may be used both for functional screening, and for GRON QC. The potato PPX genes were used to complement the HemG mutant strain of E. coli, which lacks a functional HemG gene, a bacterial homolog of PPX. Without a complementing gene, the media must be supplemented with hematin for E. coli growth.
In order to assess mutations that confer tolerance to PPX inhibitors such as Chateau (flumioxazin-Valent/Sumitomo), Naja (diphenylether—MAI) or Kixor (saflufenacil—BASF). Pure active ingredients for the PPX inhibiting herbicides Chateau (flumioxazin—Valent/Sumitomo), Spartan (sulfentrazone—FMC) and Kixor/Sharpen (saflufenacil—BASF) were obtained. […]
Liquid culture selection conditions were developed for both sulfentrazone and flumioxazin. […] Spectrophotometric readings (OD600) were taken for each sample (1:4 dilution) and a sample of each plated on LB-Chlor-IPTG plates to determine whether the OD600 correlated with the number of viable colonies. […]
Randomly mutagenized plasmids (5′ and 3′ ends) were transformed into XL1-Blue E. coli cells. […] Colony counts were compared between the two and mutation tolerance determined based on the percentage of colonies on the 0.75 mM sulfentrazone plates as compared with those on the 0 mM plates. […]

[1] = tested on: leaf disc explants of in vitro grown potato plants; experiment: Leaf disk kill curve (callus formation in leaf disc explants); assay type: cell-based
Experimental: Aimed at establish the concentration of sulfentrazone that will inhibit callus formation in leaf disc explants, leaf discs were punched with a sterile hole punch from 5 weeks old in vitro grown potato plants. The leaf discs were cultured in petri dishes containing solid Haberlach culture medium containing various concentrations of Sulfentrazone in a final concentration of 1% DMSO. Six leaf discs cultured at each herbicide concentration. Plates were sealed with micropore tape and incubated at room temperature (approximately 23° C.). In an initial experiment, 7.8 μM sulfentrazone, the lowest concentration tested in that experiment, was sufficient to stop callus formations and bleach all leaf discs within 20 days. […] Similar leaf disc kill curve experiments were performed using saflufenacil where 0.5 μM of this herbicide was sufficient to inhibit callus formation in almost all leaf discs after 20 days.

Compound: Cc1nn(-c2cc(NS(C)(=O)=O)c(Cl)cc2Cl)c(=O)n1C(F)F [sulfentrazone]
- sulfentrazone concentration on which the wildtype construct did not grow (potato plastidal PPX): 2.5 mM
- concentration sufficient to stop callus formations and bleach all leaf discs within 20 days ([1]; initial experiment, lowest concentration tested, 1% DMSO): 7.8 µM
- time after which callus initiated on the leaf veins of some leaf discs ([1]; leaf discs grown on 2.0 μM): 13 days
- concentration sufficient to inhibit callus formation in almost all leaf discs after 20 days ([1]; solid Haberlach culture medium, 1% DMSO): 3.0 µM
